Experimental data as given in PubChem BioAssay (NCI).
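Interpolation was linear, between the two tested concentrations surrounding the appropriate level; five concentrations were tested over 48 hours in 96-well plates. At the TGI there is no net growth.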

Key:
Assay in all cases: NCI tumour cell line growth inhibition, 48 h
[1] = test system: TK-10 renal
[2] = test system: OVCAR-3 ovarian
[3] = test system: MOLT-4 leukemia
[4] = test system: PC-3 prostate
[5] = test system: HT29 colon
[6] = test system: HCC-2998 colon
[7] = test system: NCI-H226 lung
[8] = test system: DU-145 prostate
[9] = test system: ACHN renal
[10] = test system: MALME-3M melanoma
[11] = test system: SF-539 CNS
[12] = test system: HCT-15 colon
[13] = test system: BT-549 breast
[14] = test system: A498 renal
[15] = test system: CCRF-CEM leukemia
[16] = test system: MDA-N
[17] = test system: M14 melanoma
[18] = test system: HS 578T breast
[19] = test system: RPMI-8226 leukemia
[20] = test system: UACC-257 melanoma
[21] = test system: OVCAR-5 ovarian
[22] = test system: MDA-MB-231 breast
[23] = test system: NCI/ADR-RES ovarian
[24] = test system: SNB-75 CNS
[25] = test system: U251 CNS
[26] = test system: OVCAR-8 ovarian
[27] = test system: NCI-H522 lung
[28] = test system: CAKI-1 renal
[29] = test system: NCI-H23 lung
[30] = test system: K-562 leukemia
[31] = test system: SF-268 CNS
[32] = test system: NCI-H460 lung
[33] = test system: RXF 393 renal
[34] = test system: SW-620 colon
[35] = test system: SNB-19 CNS
[36] = test system: HCT-116 colon
[37] = test system: SK-MEL-5 melanoma
[38] = test system: UO-31 renal
[39] = test system: 786-0 renal
[40] = test system: MDA-MB-435
[41] = test system: SK-MEL-28 melanoma
[42] = test system: UACC-62 melanoma
[43] = test system: IGROV1 ovarian
[44] = test system: A549 NSCLC
[45] = test system: COLO 205 colon
[46] = test system: KM12 colon
[47] = test system: SK-MEL-2 melanoma
[48] = test system: SF-295 CNS
[49] = test system: SN12C renal
[50] = test system: EKVX NSCLC
[51] = test system: SR leukemia
[52] = test system: LOX IMVI melanoma
[53] = test system: MCF7 breast
[54] = test system: SK-OV-3 ovarian
[55] = test system: HL-60(TB) leukemia
[56] = test system: OVCAR-4 ovarian
[57] = test system: HOP-62 NSCLC
[58] = test system: HOP-92 NSCLC
[59] = test system: T-47D breast

`CC12C(=O)OC(=O)C1(C)C1C=CC2O1` (centres undefined) showed a TGI [1] greater than 100 µM, a TGI [2] of 99 µM and a TGI [3] greater than 100 µM. The TGI [4] was greater than 100 µM, the TGI [5] was greater than 100 µM and the TGI [6] was greater than 100 µM. The TGI [7] was 48.1 µM, the TGI [8] was greater than 100 µM and the TGI [9] was greater than 100 µM. For the same compound, the TGI [10] was greater than 100 µM, the TGI [11] was greater than 100 µM and the TGI [12] was greater than 100 µM. The TGI [13] was greater than 100 µM, the TGI [14] was greater than 100 µM and the TGI [15] was greater than 100 µM. For the same compound, the TGI [16] was greater than 100 µM, the TGI [17] was greater than 100 µM and the TGI [18] was greater than 100 µM. It also gave a TGI [19] greater than 100 µM, a TGI [20] greater than 100 µM and a TGI [21] greater than 100 µM. It also gave a TGI [22] greater than 100 µM, a TGI [23] greater than 100 µM and a TGI [24] greater than 100 µM. For the same compound, the TGI [25] was greater than 100 µM, the TGI [26] was greater than 100 µM and the TGI [27] was greater than 100 µM. The TGI [28] was greater than 100 µM, the TGI [29] was greater than 100 µM and the TGI [30] was greater than 100 µM. It also gave a TGI [31] greater than 100 µM, a TGI [32] greater than 100 µM and a TGI [33] greater than 100 µM. For the same compound, the TGI [34] was greater than 100 µM, the TGI [35] was greater than 100 µM and the TGI [36] was greater than 100 µM. It also gave a TGI [37] greater than 100 µM, a TGI [38] greater than 100 µM and a TGI [39] greater than 100 µM. It also gave a TGI [40] greater than 100 µM, a TGI [41] greater than 100 µM and a TGI [42] greater than 100 µM. For the same compound, the TGI [43] was greater than 100 µM, the TGI [44] was greater than 100 µM and the TGI [45] was greater than 100 µM. For the same compound, the TGI [46] was greater than 100 µM, the TGI [47] was greater than 100 µM and the TGI [48] was greater than 100 µM. It also gave a TGI [49] greater than 100 µM, a TGI [50] greater than 100 µM and a TGI [51] greater than 100 µM. The TGI [52] was greater than 100 µM, the TGI [53] was greater than 100 µM and the TGI [54] was greater than 100 µM. The TGI [55] was greater than 100 µM.
`COc1ccc(N=CN(C)C)c(C)c1` was tested, and the TGI [1] was greater than 100 µM, the TGI [2] was 13.1 µM and the TGI [3] was 23.8 µM. For the same compound, the TGI [4] was 31 µM, the TGI [5] was 44.6 µM and the TGI [7] was 64.5 µM. The TGI [56] was 73.6 µM, the TGI [8] was 82 µM and the TGI [9] was 66.3 µM. It also gave a TGI [10] of 54 µM, a TGI [11] of 82.1 µM and a TGI [12] greater than 100 µM. It also gave a TGI [13] of 58.2 µM, a TGI [14] of 60.5 µM and a TGI [15] of 16.5 µM. For the same compound, the TGI [16] was greater than 100 µM, the TGI [17] was 55.5 µM and the TGI [18] was 19.8 µM. It also gave a TGI [19] greater than 100 µM, a TGI [20] of 9.95 µM and a TGI [21] greater than 100 µM. It also gave a TGI [22] of 58 µM, a TGI [23] greater than 100 µM and a TGI [57] of 45.4 µM. For the same compound, the TGI [24] was 63.9 µM, the TGI [25] was 72.5 µM and the TGI [26] was 83.8 µM. For the same compound, the TGI [27] was 8.08 µM, the TGI [28] was greater than 100 µM and the TGI [29] was 7.23 µM. It also gave a TGI [30] greater than 100 µM, a TGI [31] greater than 100 µM and a TGI [33] of 67.2 µM. It also gave a TGI [35] greater than 100 µM, a TGI [36] of 19.6 µM and a TGI [37] of 12.5 µM. It also gave a TGI [38] of 78.1 µM, a TGI [39] greater than 100 µM and a TGI [40] of 93.3 µM. For the same compound, the TGI [41] was 85.6 µM, the TGI [58] was 36.3 µM and the TGI [42] was 42.6 µM. The TGI [43] was greater than 100 µM, the TGI [44] was greater than 100 µM and the TGI [45] was 28 µM. The TGI [47] was 30.4 µM, the TGI [48] was 51.6 µM and the TGI [49] was 64 µM. It also gave a TGI [59] of 68.4 µM, a TGI [50] greater than 100 µM and a TGI [52] of 15.2 µM. For the same compound, the TGI [53] was 44.3 µM, the TGI [54] was 82.8 µM and the TGI [55] was 4.1 µM.
